From patent US8680133B2, “Alkyl indole-3-carbinol-derived antitumor agents” (The Ohio State University Research Foundation, priority 2009, dated 2014)

Experiment: Hematology, serum chemistry, liver weight and food consumption of mice fed the OSU-A9M diet
Format: in vivo
From the text: Further supporting a lack of toxicity with the experimental diet is a preservation of body weight (and liver weight) of mice sacrificed at the conclusion of the 6-week treatment period. 1.3±0.1 g (3.9±0.5%) in drug-treated mice vs. 1.5±0.3 g (4.3±0.7%) in controls; liver percent body weight in parentheses following absolute weight, means±SD, n=7, P=0.1 and 0.5 for absolute and relative values. There was no significant difference in the amount of control or experimental diet consumed by the mice [2.4±0.3 g in drug-treated mice vs 2.5±0.1 g in controls (P=0.5)]. Throughout the treatment period, the drug-treated mice consumed 34.1±4.6 mg OSU-A9M per kg body weight per day, calculated as g diet consumed per day/g body weight×450 (overall mean±SD of weekly means).

[1] = 450 ppm in diet, 6-week treatment, mean±SD, n=7
[2] = 450 ppm in diet, 18 to 24 weeks of age, mean±SD, n=5

Structure (SMILES): Cc1ccc2c(c1)c(CO)cn2S(=O)(=O)c1ccc(Cl)c([N+](=O)[O-])c1 [OSU-A9M, [1-(4-chloro-3-nitro-benzenesulfonyl)-5-methyl-1H-indol-3-yl]-methanol]
- Amount of diet consumed (450 ppm experimental diet): 2.4 ± 0.3 g
- Liver percent body weight [1]: 3.9±0.5%
- Liver weight (absolute) [1]: 1.3 ± 0.1 g
- ALP [2]: 70.0 ± 14.6 iu/L
- ALT [2]: 25.8 ± 8.0 iu/L
- AST [2]: 69.6 ± 27.2 iu/L
- Albumin [2]: 3.6 ± 0.2 g/dL
- BUN [2]: 23.6 ± 2.9 mg/dL
- CK [2]: 222.2 ± 144.5 iu/L
- Calcium [2]: 10.7 ± 0.2 mg/dL
- Cholesterol [2]: 193.4 ± 28.1 mg/dL
- Creatinine [2]: 0.1 ± 0.0 mg/dL
- Globulin [2]: 2.2 ± 0.1 g/dL
- Glucose [2]: 301.8 ± 53.6 mg/dL
- Lymphocytes [2]: 9.8 ± 3.1 ×10^3/μl
- Nucleated cells [2]: 11.4 ± 3.7 ×10^3/μl
- PCV [2]: 44.4 ± 1.1%
- Phosphorus [2]: 6.5 ± 0.5 mg/dL
- Platelets [2]: 327.2 ± 310.0 ×10^3/μl
- Potassium [2]: 6.9 ± 0.4 mEq/L
- RBC [2]: 10.3 ± 0.3 ×10^6/μl
- Segmented neutrophils [2]: 1.3 ± 0.5 ×10^3/μl
- Total Bilirubin [2]: 0.2 ± 0.0 mg/dL
- Total Protein [2]: 5.8 ± 0.3 g/dL
- Complete cell blood counts and serum chemistry profiles (450 ppm in diet, in words): none of the measured parameters are affected by drug treatment
